≈ marks a conversion by molar mass, not a printed value. Read-outs that look alike come from different tables or passages of the source.
Columns and labels:
Experiment in all cases: Antibacterial activity, MIC by microdilution broth method (CLSI)
S. aureus = type: cell-based, Staphylococcus aureus; conditions: Staphylococcus aureus
E. faecalis = type: cell-based; conditions: for MIC: Enterococcus faecalis
E. faecium = type: cell-based, Enterococcus faecium; conditions: Enterococcus faecium, read-out: MIC

C[C@H]1COc2c(N3CCN(C)CC3)c(F)cc3c(=O)c(C(=O)O)cn1c23 [Levofloxacin]
MIC (S. aureus; ATCC29213, 20 h, S. aureus ATCC 29213, CA-MHB, 37 °C, 20 h): 0.13 µg/mL (≈ 0.36 µM) | MIC (S. aureus; MRSA, 20 h, S. aureus (MRSA) JE2, CA-MHB, 37 °C, performed once): 8 µg/mL (≈ 22.1 µM) | MIC (S. aureus; MRSA, clinically isolated MRSA #1958): > 32 µg/mL | MIC (S. aureus; MRSA, clinically isolated MRSA #2071): 0.13 µg/mL (≈ 0.36 µM) | MIC (S. aureus; MRSA, clinically isolated MRSA #2110): > 32 µg/mL | MIC (S. aureus; MRSA, clinically isolated MRSA #2310): > 32 µg/mL | MIC (S. aureus; MRSA, clinically isolated MRSA #2334): > 32 µg/mL | MIC (S. aureus; MRSA, clinically isolated MRSA #2931): 16 µg/mL (≈ 44.3 µM) | MIC (S. aureus; MRSA, clinically isolated MRSA #2932): > 32 µg/mL | MIC (S. aureus; MRSA, clinically isolated MRSA #2933): > 32 µg/mL | MIC (S. aureus; MRSA, clinically isolated MRSA #2934): > 32 µg/mL | MIC (S. aureus; MRSA, clinically isolated MRSA #2935): > 32 µg/mL | MIC (E. faecalis; ATCC 51299 / VRE, E. faecalis (VRE) ATCC 51299): 1 µg/mL (≈ 2.77 µM) | MIC (E. faecalis; clinically isolated E. faecalis strain 21): 0.5 µg/mL (≈ 1.38 µM) | MIC (E. faecalis; clinically isolated E. faecalis strain 22): 1 µg/mL (≈ 2.77 µM) | MIC (E. faecalis; clinically isolated E. faecalis strain 23): 1 µg/mL (≈ 2.77 µM) | MIC (E. faecalis; clinically isolated E. faecalis strain 24): 1 µg/mL (≈ 2.77 µM) | MIC (E. faecalis; clinically isolated E. faecalis strain 25): 0.5 µg/mL (≈ 1.38 µM) | MIC (E. faecalis; clinically isolated E. faecalis strain 26): 0.5 µg/mL (≈ 1.38 µM) | MIC (E. faecalis; clinically isolated E. faecalis strain 27): 1 µg/mL (≈ 2.77 µM) | MIC (E. faecalis; clinically isolated E. faecalis strain 28): 1 µg/mL (≈ 2.77 µM) | MIC (E. faecalis; clinically isolated E. faecalis strain 29): 0.5 µg/mL (≈ 1.38 µM) | MIC (E. faecalis; clinically isolated E. faecalis strain 30): 1 µg/mL (≈ 2.77 µM) | MIC (E. faecalis; clinically isolated E. faecalis strain 31): 1 µg/mL (≈ 2.77 µM) | MIC (E. faecalis; clinically isolated E. faecalis strain 32): 1 µg/mL (≈ 2.77 µM) | MIC (E. faecalis; clinically isolated E. faecalis strain 33): 1 µg/mL (≈ 2.77 µM) | MIC (E. faecalis; clinically isolated E. faecalis strain 34): 1 µg/mL (≈ 2.77 µM) | MIC (E. faecalis; clinically isolated E. faecalis strain 35): 2 µg/mL (≈ 5.53 µM) | MIC (range over strains) (E. faecalis; clinically isolated E. faecalis (15 strains)): 0.5 to 2 µg/mL | MIC (E. faecium; ATCC35667, 20 h, E. faecium ATCC 35667, CA-MHB, 37 °C, 20 h): 4 µg/mL (≈ 11.1 µM) | MIC (E. faecium; ATCC 51559 / VRE, E. faecium (VRE) ATCC 51559): 16 µg/mL (≈ 44.3 µM) | MIC (E. faecium; ATCC 51858 / VRE, E. faecium (VRE) ATCC 51858): 4 µg/mL (≈ 11.1 µM) | MIC (E. faecium; clinically isolated E. faecium strain 1): > 32 µg/mL | MIC (E. faecium; clinically isolated E. faecium strain 2): > 32 µg/mL | MIC (E. faecium; clinically isolated E. faecium strain 3): > 32 µg/mL | MIC (E. faecium; clinically isolated E. faecium strain 4): > 32 µg/mL | MIC (E. faecium; clinically isolated E. faecium strain 5): 32 µg/mL (≈ 88.6 µM) | MIC (E. faecium; clinically isolated E. faecium strain 7): 0.5 µg/mL (≈ 1.38 µM) | MIC (E. faecium; clinically isolated E. faecium strain 8): > 32 µg/mL | MIC (E. faecium; clinically isolated E. faecium strain 9): > 32 µg/mL | MIC (E. faecium; clinically isolated E. faecium strain 10): > 32 µg/mL | MIC (E. faecium; clinically isolated E. faecium strain 11): > 32 µg/mL | MIC (E. faecium; clinically isolated E. faecium strain 13): > 32 µg/mL | MIC (E. faecium; clinically isolated E. faecium strain 14): > 32 µg/mL | MIC (E. faecium; clinically isolated E. faecium strain 15): > 32 µg/mL

— paper PMC9768162, “Synthesis of macrocyclic nucleoside antibacterials and their interactions with MraY” (Nature Communications, 2022)
